Measured values as given in US20220267390A1, “MPS MODIFIED PEPTIDES AND USE THEREOF” (The Regents of the University of California, priority 2019, published 2022).
Where no end group is shown, it is not given here.

What was measured:
[1] = tested on: primary IPF fibroblasts; assay: Combination of nintedanib and MPS peptide, cell viability by MTT, Chou and Talalay CI; type: cell-based, human; conditions: nintedanib 62.5-2000 nM and/or MPS 6.25-200 μM, 72 hours
Experimental: FIGS. 12A-12E: (FIGS. 12A-12B) Combinatorial effect of MPS peptide with nintedanib on fibroblasts isolated from two IPF patients. Cells were treated with various closes of nintedanib (62.5-2000 nM) and/or MPS peptide (6.25-200 μM) for 72 hours, respectively. After single ([…]) or combined ([…]) treatment, cell viability was determined by MTT assays. (FIG. 12C) The Chou and Talalay CI (combination index) method was utilized to evaluate the therapeutic interactions between nintedanib and MPS peptide using the Calcusyn software. Gray line, additive effect of the combination of MPS peptide and the drug is represented at CI=1. (FIG. 12D) Cells were individually treated with 1 μM nintedanib, 100 μM MPS peptide or combinations of 1 μM nintedanib and 100 μM MPS peptide. After 48 hours, cell viability was determined by the trypan blue exclusion assay (n+3; *, p<0.05). […] Molecular basis of MPS peptide and its potential for increasing nintedanib efficacy. […] A kinetic assay confirmed that this peptide binds PIP2 with a dissociation constant of 17.64 nM (FIG. 10B). As expected, a decrease of PIP3 pools in whole cell lysates of MPS-treated IPF fibroblasts was observed (FIG. 10C), supporting the notion that MPS peptide is able to inhibit AKT activation through trapping PIP2. […]

[2] = tested on: lung fibroblasts isolated from bleomycin-treated mice; assay: MTT cell viability of lung fibroblasts from saline- or bleomycin-treated mice; type: cell-based; conditions: fibroblasts from bleomycin-treated mice compared to those from saline-treated mice
Experimental: (§1) FIGS. 7A-7B: (FIG. 7A) Western blots analysis of phospho-MARCKS, phospho-AKT and α-SMA expression in lung fibroblast cells isolated from saline- or bleomycin-treated mice after 48 hours of treatment with control or MPS peptides (100 μM). (FIG. 7B) Effect of MPS peptide on cell viability of lung fibroblasts isolated from saline- (mFb-Saline) or bleomycin-treated (mFb-Bleomycin) mice (n=4; *, p<0.05).
MPS peptide potentially serves as an antifibrotic agent in bleomycin-induced pulmonary fibrosis. Bleomycin remains the standard agent for induction of experimental pulmonary fibrosis in animals^23. Thus, 8-week-old female C57BL/6J mice received saline or bleomycin intratracheally (33 μg in […] of saline) as previously described^23. Lung specimens from bleomycin- or saline-treated mice were collected and subjected to immunofluorescence staining. […] Next, lung fibroblast cells isolated from saline- or bleomycin-treated mice (two mice fibroblast cell lines were gifts from Dr. Sem H. Phan, University of Michigan School of Medicine, MI) were incubated with either 100 μM control or MPS peptide for 48 hours. […] The feasibility of the MPS peptide as an antifibrotic agent in a bleomycin-induced pulmonary fibrosis was tested. […] Saline- and bleomycin-exposed mice then were treated with either PBS or MPS peptide (28 mg/kg) intraperitoneally every other day. […]

[3] = tested on: phospho-MARCKS, phospho-AKT and α-SMA; assay: Western blot in lung fibroblast cells isolated from bleomycin-treated mice; type: cell-based; conditions: 100 μM, 48 hours, fibroblasts from bleomycin-treated mice
Experimental: as §1
MPS peptide potentially serves as an antifibrotic agent in bleomycin-induced pulmonary fibrosis. Bleomycin remains the standard agent for induction of experimental pulmonary fibrosis in animals^23. Thus, 8-week-old female C57BL/6J mice received saline or bleomycin intratracheally (33 μg in […] of saline) as previously described^23. Lung specimens from bleomycin- or saline-treated mice were collected and subjected to immunofluorescence staining. […] Next, lung fibroblast cells isolated from saline- or bleomycin-treated mice (two mice fibroblast cell lines were gifts from Dr. Sem H. Phan, University of Michigan School of Medicine, MI) were incubated with either 100 μM control or MPS peptide for 48 hours. […] The feasibility of the MPS peptide as an antifibrotic agent in a bleomycin-induced pulmonary fibrosis was tested. […] Saline- and bleomycin-exposed mice then were treated with either PBS or MPS peptide (28 mg/kg) intraperitoneally every other day. To ascertain the therapeutic effect of MPS peptide on pulmonary fibrosis, MPS was administered intraperitoneally during the “fibrotic” phase of the model. […]
Western blot analyses and the preparations of whole-cell lysates have been previously described^14, 16, 27 For whole cell lysates, cells were lysed in a lysis buffer (50 mM Tris-HCl (pH 7.4), 1% Triton X-100, 10% glycerol, 150 mM NaCl, 1 mM EDTA, 20 μg/ml leupeptin, 1 mM PMSF and 20 μg/ml aprotinin) and separated by SDS-PAGE. […] The cells were mounted onto slides and visualized using fluorescence microscopy (model Axiovert 100; Carl Zeiss, Oberkochen, Germany) or a Zeiss LSM510 laser-scanning confocal microscope image system.

KKKKKRFSFKKSFKLSGFSFKKNKK [MPS peptide]
Cell viability [1]: decreased | Cell viability [2]: very effective in decreasing cell viability | phospho-AKT expression [3]: decrease | phospho-MARCKS expression [3]: decrease | α-SMA expression [3]: decrease
